# Target: angiotensin converting enzyme
# Test: Inhibition of angiotensin converting enzyme (method of Cushman and Cheung)
# Format: biochemical, rabbit
# Conditions: in vitro; ratio of IC50 versus BPP5a or Glp-Lys-Phe-Ala-Pro-OH
# Source text: In particular, comparative experiments carried out […] in order to evaluate the ACE inhibitory activity of the compounds of the present invention gave the results reported in following table I (IC50 represents the concentration of the test compound, in µM, which inhibits the angiotensin converting enzyme by 50%. The enzyme employed in this test has been isolated from rabbit lungs according to the method by Cushman and Cheung described in Biochem. Pharmacol. 2Q, 1637, (1971)).
substance,measurement,value
Glp--Lys-gPhe-mAla-Pro-OH,IC50 times higher than that of the natural product (BPPSa) or the corresponding uninverted peptide Glp-Lys-Phe-Ala-Pro-OH,more than 1000 times

# — patent EP0190597A2, “Retro-inverso analogs of the bradykinin potentiating peptide bpp 5a” (SCLAVO S.p.A., priority 1985, dated 1986)
